Results: US5919635A (ZymoGenetics, Inc., priority 1995, dated 1999)
No end group written: not given here.

Tests used:
isolated human islets = assay: Insulin secretory function of isolated human pancreatic islets after perfusion; assay type: cell-based
Method: Islet cells were isolated from human pancreata obtained from organ transplant donors for whom a matched recipient was not available. After in situ perfusion with cold UW solution (Du Pont, Boston, Mass.), each pancreas was carefully excised, the pancreatic duct cannulated, and 4 mg/ml collagenase solution (Type V, Sigma, St. Louis, Mo.) infused at a constant rate, first at 4° C. and then 39° C. The gland was teased apart, and liberated fragments were washed by centrifugation, triturated through needles of decreasing caliber, and purified by discontinuous Ficoll density centrifugation (Warnock, Diabetes 35(Suppl. 1):136-139, 1989). Material harvested from the upper interfaces was pooled and counted after a determination of islet purity by dithiazone staining. Islets used in library construction were greater than 65% pure, while islets used in Northern blots were greater than 40% pure. The average islet diameter was 175 μm.

[1] = target: Rat Glucagon Receptor (pLJ4) in COS-7 cells (Rattus norvegicus, UniProt P30082); assay: cAMP accumulation (Amersham SPA kit) in COS-7 cells transfected with pLJ4; assay type: cell-based; conditions: 100 nM to 1000 nM; pLJ4 transfectants
rat glucagon receptor = target: T1, rat glucagon receptor (Rattus norvegicus, UniProt P30082); assay: CRE-luciferase induction in pLJ4 transfectant clone KZ6/rGR-DHFR-2; assay type: cell-based; conditions: listed 200 nM GLP, 20 nM VIP, 100 nM CT, 4 hours at 37° C.
T1 construct: pLJ4 contained an approximately 2 kb insert encoding a 485 amino acid protein; expressed in transfected cells; host or cells: BHK/KZ6-19-46 (BHK570 with CRE-luciferase plasmid KZ6), clone KZ6/rGR-DHFR-2
Method: D. Luciferase and Adenylate Cyclase Activity Assays on Whole Cells
BHK/KZ6-19-46 cells were co-transfected with pLJ4 and pLJ1 or with pZCEP and pLJ1 (pZCEP transfectants were used as negative controls) as described above using calcium phosphate-mediated transfection. Transfectants were selected in 250 nM methotrexate as described previously.
Transfectants were assayed in triplicate for the induction of the CRE-luciferase response by selected agonists. Six random pLJ4 transfectants were assayed, and random pZCEP transfectants were assayed (negative controls). Microtiter assay plates were set up such that each well contained 2×10^4 cells in 100 μl of selection medium, and the cells were grown overnight. The agonists were prepared in selection medium, at the 2× final assay concentration listed:
Induction was initiated by the addition of 100 μl for each 2× solution in triplicate sample wells. Uninduced levels were determined in triplicate wells to which 100 μl of DMEM containing 10% fetal calf serum was added. The plates were incubated for four hours at 37° C., 5% CO2 to allow induction of luciferase production.
(§1) Following induction, the medium was removed, and the wells were washed once with 200 μl/well PBS. […] The fold induction of luciferase for each agonist was calculated as follows: [formula]

[2] = target: T2, cloned receptor (rat glucagon receptor, pLJ4) (Rattus norvegicus, UniProt P30082); assay: Competition binding / Scatchard analysis with ^125 I-glucagon on membranes of pLJ4 BHK transfectants; conditions: micromolar amounts (Table 7: 1 μM glucagon and des-His^1 [Glu^9]glucagon amide)
T2 construct: pLJ4 contained an approximately 2 kb insert encoding a 485 amino acid protein; expressed in transfected cells; host or cells: BHK570
Method: Membranes from the pLJ4 BHK transfectants were compared with rat liver membrane preparations for the ability to bind ^125 I-glucagon. Membranes were prepared essentially described by Rodbell et al. (J. Biol Chem. 246:1861-1871, 1971, which is incorporated by reference herein in its entirety). Two batches of liver membranes were each prepared from approximately 80 gm of liver from 12 to 16 decapitated young female rats. The livers were removed quickly and placed into an iced beaker. The livers were separated into ten-gram portions. The portions were minced with scissors, and connective tissue was removed during the mincing procedure. The portions were separately homogenized in a Dounce homogenizer. To each portion, 25 ml of Medium (Table 2) was added to the minced tissue in the homogenizer, and the tissue was homogenized in an ice bucket with eight vigorous strokes of the loose pestle. After homogenization, the homogenates were pooled into 450 ml of cold Medium (Table 2). The pooled homogenates were stirred for 3 minutes and filtered through two layers of cheesecloth followed by filtering through four layers of cheesecloth. The homogenates were then centrifuged for 30 minutes at 1500×g at 4° C. The supernatants were discarded, and the pellets were pooled into a clean Dounce homogenizer. The pellets were resuspended with three gentle strokes of the loose pestle. The resuspended pellets were decanted into a 250 ml graduate containing 62 ml of 69% Sucrose Solution (Table 2). Distilled water was added to a final volume of 110 ml, and the mixture was thoroughly mixed and kept cold. The concentration of the solution was adjusted to 44.0%+/-0.1% using 69% sucrose or water as measured by a refractometer (Bausch & Lomb, Rochester, N.Y.). […]
To each tube 100 μl of 2× binding buffer; 20 μl of ^125 I-glucagon (Amersham); 20 μl of 1 mM NaHCO3; 20 μl 10 mM HOAc, 0.5% BSA (Novo Nordisk N/A, Bagsvaerd, Denmark); and 40 μl of distilled water were added. […] The supernatants from each sample were aspirated, and the pellets were counted. […]

[3] = target: Human Glucagon Receptor (pLJ6') (Homo sapiens, UniProt P47871); assay: cAMP accumulation in pLJ6'-transfected cells; assay type: cell-based
Method: The related peptides secretin, VIP, PTH, GLP and calcitonin were each added to transfectants at concentrations of 100 nM to 1000 nM and assayed for their ability to induce cAMP levels.
Transfected cells were selected in the presence of G418 until single colonies were visible. Single colonies were cloned using cloning cylinders.
The PLJ6'-transfected cells were assayed for cAMP accumulation essentially as described in Example 8.C.

[4] = tested on: CRE-luciferase (KZ6) in BHK570 cells; assay: Luciferase assay response to forskolin of KZ6-transfected BHK570 clone BHK/KZ6-19-46; assay type: cell-based
Method: Plasmid KZ6 was transfected into BHK570 cells (deposited with the American Type Culture Collection under Accession No. 10314) using the calcium phosphate precipitation method essentially as described by Graham and Van der Eb (Virology 52:456, 1973, which is incorporated by reference herein in its entirety). The transfected cells were grown in growth medium (Dulbecco's modified Eagle's medium (DMEM) containing 10% fetal calf serum, 1× PSN antibiotic mix (GIBCO-BRL), and 2.0 mM L-glutamine). After a few days in non-selective growth medium, the growth medium was replaced with G418 selection medium (growth medium containing 500 μg/ml of G418). The cells were then allowed to grow to confluency after which they are trypsinized and plated at limiting dilution into the wells of 96-well plates. The cells were grown for one to two weeks in G418 selection media. Clones from wells containing single colonies were assayed for the ability to respond to forskolin in the luciferase assay described below. Forskolin elevates the cellular cAMP level and thus the associated cAMP-dependent biological response pathways in a receptor-independent manner.
as §1

Chain of Rat Glucagon Receptor (pLJ4) in COS-7 cells (P30082 27-485): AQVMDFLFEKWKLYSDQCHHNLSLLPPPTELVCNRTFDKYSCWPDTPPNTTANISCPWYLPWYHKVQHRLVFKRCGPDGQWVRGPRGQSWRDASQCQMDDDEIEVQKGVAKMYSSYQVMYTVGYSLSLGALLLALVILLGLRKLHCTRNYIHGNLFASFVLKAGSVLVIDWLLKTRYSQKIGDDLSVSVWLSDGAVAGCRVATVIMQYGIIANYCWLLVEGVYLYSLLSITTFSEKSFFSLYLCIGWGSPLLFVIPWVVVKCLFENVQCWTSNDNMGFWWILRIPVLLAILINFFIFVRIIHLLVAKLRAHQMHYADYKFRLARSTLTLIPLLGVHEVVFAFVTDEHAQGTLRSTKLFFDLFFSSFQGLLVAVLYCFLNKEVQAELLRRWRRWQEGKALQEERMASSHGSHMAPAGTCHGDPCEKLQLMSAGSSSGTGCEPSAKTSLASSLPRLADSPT
T2 sequence (P30082 27-485): as above
T1 sequence (P30082 27-485): as above
Chain of Human Glucagon Receptor (pLJ6') (P47871 26-477): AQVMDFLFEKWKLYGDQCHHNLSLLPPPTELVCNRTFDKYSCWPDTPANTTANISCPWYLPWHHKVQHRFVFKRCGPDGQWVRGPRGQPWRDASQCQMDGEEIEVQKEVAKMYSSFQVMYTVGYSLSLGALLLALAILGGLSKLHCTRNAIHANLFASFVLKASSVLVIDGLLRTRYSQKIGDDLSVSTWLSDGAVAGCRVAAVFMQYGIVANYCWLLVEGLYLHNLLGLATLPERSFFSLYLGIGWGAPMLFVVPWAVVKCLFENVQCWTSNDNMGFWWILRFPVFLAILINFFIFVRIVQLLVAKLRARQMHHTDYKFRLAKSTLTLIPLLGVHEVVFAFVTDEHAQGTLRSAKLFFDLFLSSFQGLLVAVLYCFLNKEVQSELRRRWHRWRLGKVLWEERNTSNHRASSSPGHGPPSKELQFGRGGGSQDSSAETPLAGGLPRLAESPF

Molecule: O=C[C@H](O)[C@@H](O)[C@H](O)[C@H](O)CO [glucose]
- insulin secretory function (in words) (isolated human islets): both first and second phase insulin secretory function

Molecule: CC(C)Cn1c(=O)n(C)c(=O)c2[nH]cnc21 [isobutylmethylxanthine (IBMX), isobutylmethylxanthine]
- insulin secretory function (in words) (isolated human islets): both first and second phase insulin secretory function

Molecule: calcitonin
- ability to induce cAMP levels [1]: none of the related peptides were capable of inducing significant increases in cAMP levels
- induction of luciferase (in words) (rat glucagon receptor): not induced

Molecule: des-His^1 [Glu^9 ]glucagon amide
- ability to compete for ^125 I-glucagon binding [2]: able to compete

Molecule: secretin: porcine secretin (Sigma) (HSDGTFTSELSRLRDSARLQRLLQGLV; ends and bridges not checked; UniProt P63298 33-59, looked up)
- cAMP accumulation (in words) [3]: no increased cAMP accumulation
- ability to induce cAMP levels [1]: none of the related peptides were capable of inducing significant increases in cAMP levels

Molecule: C=C[C@@]1(C)CC(=O)[C@]2(O)[C@@]3(C)[C@@H](O)CCC(C)(C)[C@@H]3[C@H](O)[C@H](OC(C)=O)[C@@]2(C)O1 [forskolin]
- ability to respond to forskolin in the luciferase assay [4]: capable of responding to forskolin

B1: PTH: bovine parathyroid hormone (PTH) (Sigma) (peptide, UniProt P01268 32-115, looked up)
Parathyroid hormone: AVSEIQFMHNLGKHLSSMERVEWLRKKLQDVHNFVALGASIAYRDGSSQRPRKKEDNVLVESHQKSLGEADKADVDVLIKAKPQ
modifications: Parathyroid hormone
- ability to induce cAMP levels [1]: none of the related peptides were capable of inducing significant increases in cAMP levels
